Test results reported in US20060035964A1, “Hypoglycemic agent, liver protecting agent and anticancer agent containing lignans originating in hongdoushan” (priority 2002, published 2006).
Values after ≈ are worked out from the molar mass of the structure shown.

Legend:
[1] = tested on: human HT-1080 fibrosarcoma cells; assay: Antiproliferative activity against cultured cancer cells (MTT), HT-1080; assay type: cell-based; details: for IC50: Homo sapiens, HT-1080, average of 4 wells
Experimental: (§1) Compounds of lignans and hongdoushan fractions were tested for their antiproliferative activity against human HT-1080 fibrosarcoma cells and murine colon 26-L5 carcinoma cells. Human HT-1080 fibrosarcoma cells were cultured in the EMEM medium supplemented with 10% FCS (heat-inactivated fetal calf serum) and 0.1% sodium bicarbonate, and 2 mM glutamine. On the other hand, murine colon 26-L5 carcinoma cells were cultured in the RPMI medium containing the same supplements as in the EMEM medium. Cell viability was determined by means of MTT(3-(4,5-dimethylthiazol-2-yl)-2,5-[…] bromide).
(§2) The cells were cultured in a 96-well plate, which was supplemented with a cell suspension medium solution. In this case, each well had approximately 2,000 cells in 100 μL. The cells grew exponentially during the cultivation.
(§3) Twenty four hours later, when the cells adhered to the plate, the medium solution was removed, and then the cells were treated with a test compound medium solution (100 μL) at various concentrations (100 μg/mL, 50 μg/mL, 10 μg/mL, 5 μg/mL, and 1 μg/mL). The cells were cultured at 37° C. under 5% CO2. In this case, the test compounds were first dissolved in DMSO and then diluted in the medium. The concentration of DMSO was adjusted to be finally below 0.25%.
(§4) Next, the medium solution was removed, and the dissolved MTT (100 μL) was added to the medium. After three-hour incubation of the cells, the amount of the formazan formed was measured spectrophotometrically at 550 nm with a plate reader HTS-7000 (manufactured by Perkin Elmer).

[2] = tested on: murine colon 26-L5 carcinoma cells; assay: Antiproliferative activity against cultured cancer cells (MTT), colon 26-L5; assay type: cell-based; details: for IC50: Mus musculus, average of 4 wells
Experimental: as §1, §2, §3, §4

[3] = DPPH free radical scavenging activity; details: DPPH 60 μM ethanol solution, 30 minutes room temperature, absorbance 520 nm
Experimental: 500 μL of each test compound dissolved in ethanol or aqueous solution was mixed with 500 μL of DPPH (1,1-diphenyl 1-2-picrylhydrazyl) ethanol solution (concentration: 60 μM). The mixtures were left at room temperature for 30 minutes, and then their absorbance was measured at 520 nm. The measurements were carried out for each test compound at different concentrations.

[4] = tested on: D-GalN/LPS-induced hepatic damage in mice; assay: D-GalN/LPS-induced hepatic damage model; assay type: in vivo, mouse; details: for GOT level in blood serum / GPT level in blood serum / TNF-α level in blood serum: ddY mice, subcutaneous 10 mg/kg and 50 mg/kg; for GOT level in blood serum / GPT level in blood serum: 12 h and 1 h before D-GalN/LPS, measured 8 hours after injection; for TNF-α level in blood serum: measured 90 minutes after D-GalN/LPS injection, ELISA; for Histopathological observation of hepatic cells (apoptosis): 8 hours after the injection of D-GalN/LPS, compared with control group
Experimental: Evaluation by D-galactosamine (hereinafter called “D-GalN”)/Lipopolysaccharide (hereinafter called “LPS”)-induced hepatic damage model (J. Wang et al., Biochem. Pharm., 39, 267 (1990), A. Wendel et al., Biochem. Pharm., 35, 2115 (1986))
Male mice of ddY strains (age: 6 weeks) kept fast for 12 hours, and then hepatic damage was induced in the mice by injecting D-GalN (700 mg/kg)/LPS (10 μg/kg) into their abdominal cavity. Test compounds were given subcutaneously to the mice 2 times: 12 hours and 1 hour before the injection of D-GalN/LPS. They were arranged into 2 groups which were given test compounds: a group in a dose of 50 mg/kg (weight of rat), and a group in a dose of 10 mg/kg (weight of rat). There were also a control group which was given normal saline solution and a group which was given silymarin, a known hepatoprotective agent, (subcutaneous administration in a dose of 100 mg/kg) for comparison of medicinal benefits.
Tumor necrosis factor alpha (hereinafter called “TNF-α”) level in the blood was measured 90 minutes after the injection of D-GalN/LPS. Furthermore, levels of GPT (glutamic-pyruvic transaminase) and GOT (glutamic oxaloacetic transaminase) in the blood were measured 8 hours after the injection.
TNF-α level was measured by means of the ELISA method using an anti-mouse TNF-α antibody (manufactured by Endogen, Inc., USA), and levels of GPT and GOT were measured by using a Transaminase CII-Test kit (manufactured by Wako Pure Chemical Industries, Ltd.).
The hepatic damage mechanism induced in this damage model is thought to have high correlativity with clinical results as a model of immunological hepatic damage outbreak because of a series of process such as activation of cells involved in immunity, infiltration into hepatic tissues, secretion of cytokine and autocoid such as leukotriene D4 and TNF-α, and apoptosis of hepatic cells.

[5] = tested on: primary cultured mouse hepatocytes; assay: Inhibitory activity on TNF-α-induced cell death in primary cultured mouse hepatocytes (MTT); assay type: cell-based; details: D-galactosamine 0.5 mM + TNF-α 100 ng/mL; compounds at 200, 100, 50 and 10 μM; 18 hours; compared with Control
Experimental: Hepatic parenchymal cells were separated from the lives of male mice of ddY strains by means of a collagenase recirculation method. The separated hepatic parenchymal cells were suspended in the William's E culture medium, which was supplemented with 10% calf blood serum, 100 IU/mL penicillin G, 100 µg/mL streptomycin, 100 μM dexamethasone, and 50 ng/mL insulin, and incubated in a 96-well plastic plate (1.5×10^4 cells/well). The culture medium was replaced with a fresh culture medium containing D-galactosamine (0.5 mM) and lignans after 2-hour pre-incubation. TNF-α (100 ng/mL) was added to each well 30 minutes later. The hepatocytes viability was assessed 18 hours later by means of MTT(3-(4,5-dimethylthiazol-2-yl)-2,5-[…] bromide) colorimetric reaction.
The vertical axis of the graph represents cell viability in percentage. The bar of Normal is cell viability in the TNF-α-untreated culture medium. The bar of Control is cell viability in the test compound-untreated culture medium.
TAX, HYL, SIL, and ITX were treated at 200 μM, 100 μM, 50 μM, and 10 μM in the culture medium. Cell viability of each item is shown in the bar graphs.

[6] = tested on: diabetic rats induced by injecting STZ; assay: Decrease activity in blood glucose level in STZ-induced diabetic rats; assay type: in vivo, rat; details: STZ diabetic Wistar rats; for Reduction of blood glucose level: 10 mg/kg into abdominal cavity 5 times at 12 h intervals (positive control: tolbutamide 200 mg/kg + buformin 1 mg/kg)
Experimental: Activities of compounds of lignans and hongdoushan fractions in decreasing blood glucose level were assessed by using rats.
Blood serums were obtained after the blood cell separation of the whole blood samples collected from the rats. Measurement of the blood glucose level was carried out by using the blood serum, a Glucose CII-TEST WAKO (manufactured by Wako Pure Chemical Industries, Ltd.) as a reagent and a UV-160A (manufactured by Shimadzu Corporation) as an instrument for absorbance measurement.
Male rats of Wistar strains (age: 5-6 weeks, weight: 180-200 g) kept fast for 16 hours. Then, citrate buffer solution (pH 4.2) of streptozocin (hereinafter called “STZ”) was injected into the rats' abdominal cavity in a dose of 55 mg/kg (weight of rat). Blood samples were taken from the tail vein of the rats 5 days after the injection, to measure blood glucose level. Rats with blood glucose level higher than 250 mg/dL were considered to be diabetic and were used for the tests.
Compounds or fractions were injected into the abdominal cavity of the diabetic rats in a dose of 10 mg/kg (weight of rat) 5 times at intervals of 12 hours. Blood samples were taken from the tail veins of the rats to measure the blood glucose level. Averages and standard deviations of measured values were calculated for groups, each of which had 4 rats. The groups included a negative control group, which was given normal saline solution, and a positive control group of said diabetic rats, which were given a mixture of tolbutamide in a dose of 200 mg/kg (weight of rat) and buformin in a dose of 1 mg/kg (weight of rat) through their abdominal cavity.

SMILES | IC50 [1] | IC50 [2] | ED50 DPPH free radical scavenging [3] | GOT level in blood serum [4] | GPT level in blood serum [4] | TNF-α level in blood serum [4] | Cell viability [5] | Histopathological observation of hepatic cells (apoptosis) [4] | Antiproliferative activity against HT-1080 (in words) [1] | Reduction of blood glucose level [6] | Antiproliferative activity against Colon 26-L5 (in words) [2] | Blood glucose level After administration ([6]; after 10 mg/kg into abdominal cavity 5 times at 12 h intervals (positive control: tolbutamide 200 mg/kg + buformin 1 mg/kg), mean ± SD) | Blood glucose level Before administration ([6]; before administration, mean ± SD, 4 rats)
O=c1[nH]cc(F)c(=O)[nH]1 [5-Fluorouracil, reference compound] | 0.29 µg/mL (≈ 2.23 µM) | 0.07 µg/mL (≈ 0.538 µM) |  |  |  |  |  |  |  |  |  |  | 
O=C(O)/C=C/c1ccc(O)c(O)c1 [Caffeic Acid] |  |  | 5.41 µg/mL (≈ 30 µM) |  |  |  |  |  |  |  |  |  | 
COc1cc([C@H]2OC[C@H]([C@@H](O)c3ccc(O)c(OC)c3)[C@@H]2CO)ccc1O [HYL, (7′R)-7′-Hydroxylariciresinol] | > 100 µg/mL | > 100 µg/mL |  | inhibit the increase | inhibit the increase | inhibit the increase | results similar to that of TAX |  |  |  |  |  | 
COc1cc2c(cc1O)[C@H](c1ccc(O)c(O)c1)[C@@H](CO)[C@H](CO)C2 [ITX, Isotaxiresinol] | 43.8 µg/mL (≈ 126 µM) | 36.5 µg/mL (≈ 105 µM) |  | inhibit the increase | inhibit the increase | inhibit the increase | results similar to that of TAX | less apoptosis corpuscles in the cells and less concentrated chromatins in the cell nucleuses | showed antiproliferative activity | 23.6% | showed antiproliferative activity |  | 
COc1cc(C[C@@H](CO)[C@H](CO)Cc2ccc(O)c(OC)c2)ccc1O [SIL, Secoisolariciresinol] | 5.9 µg/mL (≈ 16.3 µM) | 60.2 µg/mL (≈ 166 µM) |  | inhibit the increase | inhibit the increase | inhibit the increase | results similar to that of TAX | less apoptosis corpuscles in the cells and less concentrated chromatins in the cell nucleuses | noticeable antiproliferative activity | 33.4% |  |  | 
COc1cc(C[C@H]2CO[C@H](c3ccc(O)c(O)c3)[C@H]2CO)ccc1O [TAX, Taxiresinol] | 62.2 µg/mL (≈ 180 µM) | 35.2 µg/mL (≈ 102 µM) |  | inhibit the increase | inhibit the increase | inhibit the increase | increased cell viability considerably in a dose-dependent manner |  | showed antiproliferative activity | 20.9% | showed antiproliferative activity | 250.2 ± 35.5 mg/dL | 316.1 ± 19.9 mg/dL
